Measurements reported in patent EP2067861A1, “Animals of the rattus genus wherein msh6 expression is functionally decreased and methods for the generation of specific mutants therefrom” (Koninklijke Nederlandse Akademie van Wetenschappen, priority 2007, dated 2009).

Assays:
[1] = tested on: Male MSH6 knockout rats (Msh6^1Hubr); test: ENU-induced germ line mutation discovery by resequencing 768 amplicons in F1 progeny; assay type: in vivo, rat
Description: All experiments were approved by the Animal Care Committee of the Royal Dutch Academy of Science according to the Dutch legal ethical guidelines. Experiments were designed to minimize the number of required animals and their suffering. Male MSH6 knockout rats (Msh6^1Hubr) of 12 weeks of age were given three weekly intraperitoneal injections of 25, 30 and 35 mg/kg bodyweight ENU. Preparation of ENU (Isopac; Sigma) was done as decribed (for detailed description, see (Smits et al. (2006) Pharmacogenet Genomics 16, 159-69) After the treatment the injected males were monitored for fertility by breeding with one or two females. Pups from these early matings were counted, but not analyzed. Ten weeks after the last injection, fertile males of the highest-dosed fertile group were kept on a weekly breeding scheme with two females to produce F1 progeny for mutational analysis. Animals were housed under standard conditions in groups of two to three per cage per gender under controlled experimental conditions (12-h light/dark cycle, 21±1°C, 60% relative humidity, food and water ad libitum).
At two weeks of age F1 progeny were uniquely tagged by fetching ear clips. Ear clips were lysed for at least 2 hours at 55°C and 1400 rpm in a Thermomixer comfort (Eppendorf) in 400 µl lysisbuffer (100 mM Tris (pH 8.5), 200 mM NaCl, 0.2% SDS, 5 mM EDTA and 100 µg/ml of freshly added Proteinase K) followed by phenol/chloroform (1:1, vol/vol) extraction. The DNA was precipitated by adding 300 µl isopropanol, mixing and centrifuging for 20 min, at 21,000 g at 4°C. The supernatant was discarded and pellets were washed with 70% ethanol and dissolved in 500 µl MQ.
768 pre-selected amplicons were amplified using a nested PCR setup. The first PCR was carried out using a touchdown thermocycling program (94°C for 60 sec; 15 cycles of 92°C for 30 sec, 65°C for 30 sec with a decrement of 0.6°C per cycle, 72°C for 60 sec; followed by 30 cycles of 92°C for 30 sec, 58°C for 30 sec and 72°C for 60 sec; 72°C for 180 sec; GeneAmp9700, Applied Biosystems). The PCR reaction contained ±100 ng DNA, 0.2 µM of each forward primer and 0.2 µM of each reverse primer, 400 µM of each dNTP, 25 mM tricine, 7.0% glycerol (w/v), 1.6% dimethyl sulfoxide (DMSO) (w/v), 2 mM MgCl2, 85 mM ammonium acetate pH 8.7 and 0.2 U Taq Polymerase in a total volume of 5 µl. After thermocycling, the PCR1 reactions were diluted with 20 µl H2O and 1 µl was used as template for the second round of PCR. The second PCR was done using a standard thermocycling program (94°C for 60 sec; 35 cycles of 92°C for 20 sec, 58°C for 30 sec and 72°C for 60 sec; 72°C for 180 sec; GeneAmp9700, Applied Biosystems). PCR2 mixes contained 1 µl diluted PCR1 template, 0.1 µM forward primer, 0.1 µM reverse primer, 100 µM of each dNTP, 25 mM tricine, 7.0% glycerol (w/v), 1.6% DMSO (w/v), 2 mM MgCl2, 85 mM ammonium acetate pH 8.7 and 0.1 U Taq Polymerase in a total volume of 5 µl. Several samples of each plate were tested on a 1% agarose gel containing ethidium bromide for the presence of the proper PCR fragment. PCR2 products were diluted with 20 µl H2O and 1 µl was directly used as a template for the sequencing reactions. Sequencing reactions contained 0.1 µl BigDye (v3.1; Applied Biosystems), 1.9 µl BigDye Dilution Buffer (Applied Biosystems) and 0.4 µM of the forward primers used for the PCR2 reaction in a total volume of 5 µl. The thermocycling program that was recommended by the manufacturer was used for the sequence reactions (40 cycles of 94°C for 10 sec, 50°C for 5 sec and 60°C for 120 sec). Sequencing products were purified by ethanol precipitation in the presence of 40 mM sodium-acetate and analyzed on a 96-capillary 3730XL DNA analyzer (Applied Biosystems), using the standard RapidSeq protocol on 36 cm array. Sequences were analyzed for the presence of heterozygous mutations using PolyPhred (Nickerson et al. (1997) Nucleic Acids Res. 25, 2745-51) and in-house developed software. […]

A:T base pairs = conditions: Justice et al. (1999); cited from earlier work
[2] = 3 x 30 mg/kg bodyweight ENU, animals born 14 - 16 weeks after the ENU injection
[3] = 94 coding mutations, all MSH6^-/- dose groups
[4] = ENU mutation spectrum, MSH6 deficient compared to proficient background
[5] = MSH6^-/- 3 x 25 mg/kg ENU, 16 pups, 3.57 x 10^6 bases screened
[6] = MSH6^-/- 3 x 30 mg/kg ENU, 291 pups, 69.66 x 10^6 bases screened
[7] = MSH6^-/- 3 x 35 mg/kg ENU, 3 pups, 0.72 x 106 bases screened
[8] = MSH6^-/- Total of the three dose groups

Question: For CCN(N=O)C(N)=O [ENU, N-ethyl-N-nitrosourea], which “Mutation Frequencies” value ([1]; 3 x 30 mg/kg bodyweight ENU, F1 born 14 - 16 weeks after last injection) is on record?
Answer: Its value is 1.88 x 10^-6.

Question: And the “# Mutations” value ([1]; 3 x 30 mg/kg bodyweight ENU, F1 born 14 - 16 weeks after last injection, 59 pups, 14.92 x 10^6 bases screened)?
Answer: The value was 28.

Question: And the “Mutation Frequencies” value ([1]; 3 x 30 mg/kg bodyweight ENU, F1 born 17 - 19 weeks after last injection)?
Answer: Its value is 1.65 x 10^-6.

Question: And the “# Mutations” value ([1]; 3 x 30 mg/kg bodyweight ENU, F1 born 17 - 19 weeks after last injection, 62 pups, 13.30 x 106 bases screened)?
Answer: The value was 22.

Question: What about the “Mutation Frequencies” value ([1]; 3 x 30 mg/kg bodyweight ENU, F1 born 20 - 22 weeks after last injection) of the same molecule?
Answer: Its value is 1.24 x 10^-6.

Question: What about the “# Mutations” value ([1]; 3 x 30 mg/kg bodyweight ENU, F1 born 20 - 22 weeks after last injection, 67 pups, 15.34 x 10^6 bases screened) of the same molecule?
Answer: The value was 19.

Question: What about the “Mutation Frequencies” value ([1]; 3 x 30 mg/kg bodyweight ENU, F1 born 23 - 25 weeks after last injection) of the same molecule?
Answer: The value was 9.92 x 10^-7.

Question: And the “# Mutations” value ([1]; 3 x 30 mg/kg bodyweight ENU, F1 born 23 - 25 weeks after last injection, 64 pups, 16.14 x 10^6 bases screened)?
Answer: The value was 16.

Question: And the mutation frequency ([1]; 3 x 30 mg/kg bodyweight ENU, F1 born 23 weeks after the last injection or later)?
Answer: Its mutation frequency is “approximately 1.0 x 10^-6 per base pair”.

Question: And the “Mutation Frequencies” value ([1]; 3 x 30 mg/kg bodyweight ENU, F1 born 26 - 29 weeks after last injection)?
Answer: The value was 1.10 x 10^-6.

Question: What about the “# Mutations” value ([1]; 3 x 30 mg/kg bodyweight ENU, F1 born 26 - 29 weeks after last injection, 39 pups, 9.97 x 10^6 bases screened) of the same molecule?
Answer: The value was 11.

Question: And the mutation frequency [1, 2]?
Answer: The mutation frequency was 1.88 x 10^-6 per base pair.

Question: And the “mutation rate (1 mutation every ... base pairs)” value [1, 2]?
Answer: The value was 5.3 x 10^5 base pairs.

Question: And the mutation frequency ([1]; 3 x 30 mg/kg bodyweight ENU, animals born 17 - 19 weeks after the last ENU injection)?
Answer: Its mutation frequency is 1.65 x 10^-6 per base pair.

Question: What about the mutation frequency ([1]; 3 x 30 mg/kg bodyweight ENU, animals born 20 - 22 weeks after the last ENU injection) of the same molecule?
Answer: The mutation frequency was 1.24 x 10^-6 per base pair.

Question: What about the “missense mutations, share of coding mutations” value [1, 3] of the same molecule?
Answer: The value was about 74%.

Question: What about the “nonsense mutations, share of coding mutations” value [1, 3] of the same molecule?
Answer: The value was about 4%.

Question: And the “silent mutations, share of coding mutations” value [1, 3]?
Answer: The value was about 21%.

Question: What about the “percentage of A:T to G:C transitions” value [1, 4] of the same molecule?
Answer: The value was “significantly decreased”.

Question: And the “percentage of G:C to A:T transitions” value [1, 4]?
Answer: The value was “significantly increased”.

Question: And the percentages of transversions [1, 4]?
Answer: Its percentages of transversions is “No significant change”.

Question: And the “# Mutations - non-coding” value ([1]; MSH6^-/- 3 x 25 mg/kg ENU)?
Answer: The value was 0.

Question: And the “# Mutations - silent” value ([1]; MSH6^-/- 3 x 25 mg/kg ENU)?
Answer: Its value is 1.

Question: What about the “# Mutations - missense” value [1, 5] of the same molecule?
Answer: Its value is 4.

Question: What about the “# Mutations - nonsense” value [1, 5] of the same molecule?
Answer: The value was 0.

Question: And the “# Mutations - total” value [1, 5]?
Answer: The value was 5.

Question: And the “Mutation Frequencies” value ([1]; MSH6^-/- 3 x 25 mg/kg ENU, F1 progeny)?
Answer: Its value is 1.40 x 10^-6.

Question: What about the “# Mutations - non-coding” value ([1]; MSH6^-/- 3 x 30 mg/kg ENU) of the same molecule?
Answer: The value was 8.

Question: And the “# Mutations - silent” value ([1]; MSH6^-/- 3 x 30 mg/kg ENU)?
Answer: The value was 19.

Question: What about the “# Mutations - missense” value [1, 6] of the same molecule?
Answer: The value was 65.

Question: And the “# Mutations - nonsense” value [1, 6]?
Answer: The value was 4.

Question: And the “# Mutations - total” value [1, 6]?
Answer: Its value is 96.

Question: And the “Mutation Frequencies” value ([1]; MSH6^-/- 3 x 30 mg/kg ENU, F1 progeny)?
Answer: The value was 1.38 x 10^-6.

Question: And the “# Mutations - non-coding” value ([1]; MSH6^-/- 3 x 35 mg/kg ENU)?
Answer: The value was 0.

Question: What about the “# Mutations - silent” value ([1]; MSH6^-/- 3 x 35 mg/kg ENU) of the same molecule?
Answer: Its value is 0.

Question: And the “# Mutations - missense” value [1, 7]?
Answer: The value was 1.

Question: What about the “# Mutations - nonsense” value [1, 7] of the same molecule?
Answer: The value was 0.

Question: What about the “Mutation Frequencies” value ([1]; MSH6^-/- 3 x 35 mg/kg ENU, F1 progeny) of the same molecule?
Answer: Its value is 1.38 x 10^-6.

Question: What about the “# Mutations - missense” value [1, 8] of the same molecule?
Answer: The value was 70.

Question: What about the “# Mutations - non-coding” value [1, 8] of the same molecule?
Answer: The value was 8.

Question: What about the “# Mutations - silent” value [1, 8] of the same molecule?
Answer: Its value is 20.

Question: And the “# Mutations - total” value ([1]; MSH6^-/- Total of the three dose groups, 310 pups, 73,95 x 10^6 bases screened)?
Answer: Its value is 102.

Question: What about the “increase of mutation rate compared to control animals” value ([1]; MSH6 deficient 3 x 30 mg/kg ENU versus control 3 x 40 mg/kg) of the same molecule?
Answer: The value was 1.7 x.

Question: What about the “mutation rate (1 mutation every ... base pairs)” value ([1]; MSH6 deficient, 3 x 30 mg/kg bodyweight ENU, 291 F1 progeny, almost 70 Mb) of the same molecule?
Answer: Its value is 7.26 x 10^5 base pairs.

Question: What about the “mutations in coding regions” value ([1]; of the 102 mutations found, all MSH6^-/- dose groups) of the same molecule?
Answer: Its value is 94.

Question: And the “A:T->C:G transversions” value (A:T base pairs)?
Answer: Its value is 5%.

Question: And the “A:T->G:C transitions” value (A:T base pairs)?
Answer: The value was 38%.

Question: And the “A:T->T:A transversions” value (A:T base pairs)?
Answer: The value was 44%.

Question: What about the “G:C ->A:T transitions” value (A:T base pairs) of the same molecule?
Answer: Its value is 8%.

Question: What about the “G:C->C:G transversions” value (A:T base pairs) of the same molecule?
Answer: Its value is 3%.

Question: And the “G:C->T:A transversions” value (A:T base pairs)?
Answer: The value was 2%.

Question: And the missense mutations (A:T base pairs)?
Answer: The missense mutations was “about 64%”.

Question: What about the nonsense mutations (A:T base pairs) of the same molecule?
Answer: The nonsense mutations was about 10%.

Question: What about the splicing errors (A:T base pairs) of the same molecule?
Answer: The splicing errors was about 26%.
